In patent US20050065118A1, “Organosulfur inhibitors of tyrosine phosphatases” (priority 2001, published 2005):
Several values for one entry are separate records, joined by “and”; a condition that tells them apart may be missing. Equal values may be shown once.

Assays:
PTP-1B = target: T1, PTP-1B (Homo sapiens, UniProt P18031); assay: PTP-1B inhibition, Malachite Green assay with pIRP substrate; assay type: biochemical
T1 sequence (P18031 1-435): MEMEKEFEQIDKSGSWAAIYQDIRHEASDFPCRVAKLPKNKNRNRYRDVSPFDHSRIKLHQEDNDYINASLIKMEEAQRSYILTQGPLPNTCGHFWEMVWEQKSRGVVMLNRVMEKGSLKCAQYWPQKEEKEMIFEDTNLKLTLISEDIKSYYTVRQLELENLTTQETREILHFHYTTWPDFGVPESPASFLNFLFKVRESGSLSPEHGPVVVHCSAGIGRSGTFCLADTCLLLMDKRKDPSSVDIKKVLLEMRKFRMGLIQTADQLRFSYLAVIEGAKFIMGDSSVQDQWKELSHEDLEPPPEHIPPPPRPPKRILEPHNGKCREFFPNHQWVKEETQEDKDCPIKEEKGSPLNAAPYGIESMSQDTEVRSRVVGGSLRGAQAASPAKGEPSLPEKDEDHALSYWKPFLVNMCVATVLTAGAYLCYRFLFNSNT
Method: The compounds of the present invention are evaluated for biological activity as inhibitors of PTP-1B using, for example, a Malachite Green assay with pIRP as a substrate. The pIRP substrate includes a phosphotyrosine residue, and PTP-1B cleaves the phosphate group from the tyrosine, yielding the peptide and phosphate. The rate of the enzymatic reaction is determined by measuring the phosphate released during the reaction.
The reactants for the assay include 20 mM Tris-HCl, pH 7.4, 2 mM EDTA (ethylaminediamine tetraacetic acid) and 2 mM DTT (dithiothreitol) as the assay buffer, and 1 mM pIRP in assay buffer (1 mg in 0.59 mL buffer) as the substrate stock. The Malachite Green solution is prepared by adding 30 μL of 1% Tween 20 to 1 mL of Malachite Green Solution A. The stock of each compound to be tested is made up as 10 mM in DMSO (dimethylsulfoxide).
The compound to be tested is prepared as 1:5, 1:15.8, 1:50 and 1:158 dilutions from stock in a total volume of […]. The reaction mixtures are prepared in a 96-well microtiter plate as 27.5 μL assay buffer, […] of the diluted compound (to a final concentration of 100, 32, 10 and 3.2 μM), 10 μL of the pIRP substrate solution (to a final concentration of 200 μM) and 10 μL PTPase in assay buffer. The reactants are mixed well, the plate placed in a water bath at 30° C. and incubated for 3 minutes. The reaction is then terminated by adding 100 μL of Malachite Green solution per well, color is allowed to develop for 15 minutes, and the A650 is measured by conventional means.
Unless otherwise indicated, this assay was used to determine activity for the selected compounds whose activity is recorded in the Table.

TC-PTP = target: T2, TC-PTP (Homo sapiens, UniProt P17706); assay: TC-PTP inhibition, pNPP tyrosine phosphatase assay; assay type: biochemical; settings: two values in a cell = two determinations
T2 construct: purchased NEB
T2 sequence (P17706 1-317 limits assumed): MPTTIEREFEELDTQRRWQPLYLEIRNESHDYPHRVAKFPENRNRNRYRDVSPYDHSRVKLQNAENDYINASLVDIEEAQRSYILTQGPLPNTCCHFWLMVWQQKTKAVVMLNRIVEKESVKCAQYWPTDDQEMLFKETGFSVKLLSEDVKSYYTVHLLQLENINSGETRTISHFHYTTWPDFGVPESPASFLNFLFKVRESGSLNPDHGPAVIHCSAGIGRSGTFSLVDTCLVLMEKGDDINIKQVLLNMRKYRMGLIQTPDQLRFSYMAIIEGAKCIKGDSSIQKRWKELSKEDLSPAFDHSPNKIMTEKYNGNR
Method: (§1) Alternatively, a pNPP assay can be used to screen compounds for tyrosine phosphatase inhibitory activity as follows: A 5× stock of pNPP (p-nitrophenol phosphate) substrate is prepared as 50 mM pNPP in assay buffer prepared as described above. Various tyrosine phosphatase solutions can be prepared as follows: • PTP-1B (SBI purified, 1 mg/mL) as a 1:250 dilution (to a final concentration of 4 μg/mL); • TC-PTP (NEB, 1000 units in 100 μL) as a 1:50 dilution (to a final concentration of 2U/10 μL (4 μg/mL)); • CD45 (Calbiochem, 20 μg, 400 units in 100 μL) as a 1:50 dilution (to a final concentration of 0.8U/10 μL (4 μg/mL)); • LAR (NEB, 1000 units in 200 μL) as a 1:75 dilution (to a final concentration of 0.7U/10 μL (4 μg/mL)); and • PTP-β (UBI, #14-350, 10,000 units, 40 μg/571 μL) as a 1:17.5 dilution (to a final concentration of 10U/10 μL (4 μg/mL));
(§2) The compound to be tested is prepared as 1:16.7 and 1:50 dilutions from stock in a total volume of […] to give final concentrations of 626 and 200 μM. The reaction mixtures are prepared in a 96-well microtiter plate (on ice) as 55 μL assay buffer, 5 μL of the diluted compound (to a final concentration of 31.3 and 10 μM), 20 μL of the pNPP substrate solution (to a final concentration of 10 mM) and 20 μL PTease in assay buffer. The reactants are mixed well, the plate placed in a water bath at 30° C. and incubated for 10 minutes. The reaction is then terminated by adding 100 μL of 2M K2CO3 per well, and the absorbance is measured at 405 nm by conventional means.

PTP-β = target: T3, PTP-β (Homo sapiens, UniProt P23467); assay: PTP-β inhibition, pNPP tyrosine phosphatase assay; assay type: biochemical
T3 construct: purchased UBI #14-350
T3 sequence (P23467 1643-1997 limits assumed): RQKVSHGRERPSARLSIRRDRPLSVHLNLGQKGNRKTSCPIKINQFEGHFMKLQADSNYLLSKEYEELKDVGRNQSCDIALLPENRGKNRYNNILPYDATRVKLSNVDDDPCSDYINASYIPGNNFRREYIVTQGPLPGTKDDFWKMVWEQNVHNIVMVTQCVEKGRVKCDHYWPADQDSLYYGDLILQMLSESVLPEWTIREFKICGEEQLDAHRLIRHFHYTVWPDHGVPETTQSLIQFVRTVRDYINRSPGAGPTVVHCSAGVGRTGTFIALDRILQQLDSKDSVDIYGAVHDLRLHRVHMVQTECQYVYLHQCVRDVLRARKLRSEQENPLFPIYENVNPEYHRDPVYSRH
Method: as §1, §2

CD-45 = target: T4, CD-45 (Homo sapiens, UniProt P08575); assay: CD45 inhibition, pNPP tyrosine phosphatase assay; assay type: biochemical
T4 construct: purchased Calbiochem
T4 sequence (P08575 609-1306 limits assumed): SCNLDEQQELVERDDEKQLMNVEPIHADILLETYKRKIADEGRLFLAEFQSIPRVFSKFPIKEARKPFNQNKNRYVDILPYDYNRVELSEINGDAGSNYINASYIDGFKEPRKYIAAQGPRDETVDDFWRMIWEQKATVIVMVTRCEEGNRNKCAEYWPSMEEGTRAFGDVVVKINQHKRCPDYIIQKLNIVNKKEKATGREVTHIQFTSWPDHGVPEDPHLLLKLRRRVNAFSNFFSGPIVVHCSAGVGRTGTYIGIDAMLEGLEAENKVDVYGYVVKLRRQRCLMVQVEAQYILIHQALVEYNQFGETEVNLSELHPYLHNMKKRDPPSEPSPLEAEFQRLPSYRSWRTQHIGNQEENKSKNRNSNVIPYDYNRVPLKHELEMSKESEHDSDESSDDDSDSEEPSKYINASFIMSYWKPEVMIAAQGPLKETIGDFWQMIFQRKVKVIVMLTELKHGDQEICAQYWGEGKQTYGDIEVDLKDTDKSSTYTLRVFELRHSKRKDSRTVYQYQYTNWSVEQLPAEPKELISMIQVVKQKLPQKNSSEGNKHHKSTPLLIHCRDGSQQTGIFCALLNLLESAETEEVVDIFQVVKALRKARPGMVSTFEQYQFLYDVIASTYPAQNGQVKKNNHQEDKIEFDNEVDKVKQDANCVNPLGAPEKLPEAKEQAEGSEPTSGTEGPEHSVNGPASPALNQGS
Method: as §1, §2

| SMILES | IC50 (PTP-1B) [µM] | IC50 (TC-PTP) | IC50 (PTP-β) [µM] | IC50 (CD-45) [µM] | melting point |
| --- | --- | --- | --- | --- | --- |
| Clc1ccc(Nc2nnc(-c3cccc(Oc4cccc(-c5nnn[nH]5)c4)c3)s2)cc1Cl [Example 14, {5-[3-(3-(1H-1,2,3,4-tetraazol-5-yl)phenoxy)phenyl](1,3,4-thiadiazol-2-yl)}(3,4-dichlorophenyl)amine] | 5 | 12 µM | 24 | 10 |  |
| O=C(O)c1ccc(CN(c2ccc(Cl)c(Cl)c2)c2nc(-c3ccc(-c4ccccc4)cc3)cs2)cc1 [Example 168, 4-({(3,4-dichlorophenyl)[4-(4-phenylphenyl)(1,3-thiazol-2-yl)]amino}methyl)benzoic acid.] | 1 |  |  |  |  |
| C/C(=N\OCC(=O)O)c1cccc(Nc2nnc(-c3cccc(Oc4cccc(C(F)(F)F)c4)c3)s2)c1 [Compound 190, [1-(3-{5-[3-(3-Trifluoromethyl-phenoxy)-phenyl]-[1,3,4]thiadiazol-2-ylamino}-phenyl)-ethylideneaminooxy]acetic acid] | 5 |  |  |  | 220 °C (dec.) |
| Clc1cc(Nc2nnc(-c3cccc(Oc4ccccc4)c3)s2)ccc1Br [Example 135] | 6 | 20 µM and 12 µM | > 100 | 20 |  |
| COc1cccc(-c2nn3cc(-c4ccc(-c5ccccc5)cc4)nc3s2)c1 [Example 16, (3-methoxy-1-(6-(4-phenylphenyl)imidazolo(2,1-b)1,3,4-thiadiazolin-2-yl)benzene)] | 12 |  | > 100 | 30 |  |
| O=[N+]([O-])c1cccc(-c2nnc(Nc3cccc(Br)c3)s2)c1 [Example 80, (3-bromophenyl)[5-(3-nitrophenyl)(1,3,4-thiadiazol-2-yl)]amine] | 7 | 14 µM and 8 µM | > 100 | 80 |  |
| O=C(O)c1cccc(Nc2nnc(-c3cc(OCc4ccccc4)cc(OCc4ccccc4)c3)s2)c1 [Compound 188, 3-[5-(3,5-Bis-benzyloxy-phenyl)-[1,3,4]thiadiazol-2-ylamino]-benzoic acid] | 10 |  |  |  |  |
| CCOc1cccc(-c2nnc(Nc3ccc(Br)c(Cl)c3)s2)c1 [Example 66, (4-bromo-3-chlorophenyl)[5-(3-ethoxyphenyl)(1,3,4-thiadiazol-2-yl)]amine] | 7 | 20 µM | > 100 | 25 | 204 to 205 °C |
| O=C(O)c1cccc(Oc2cccc(-c3nnc(Nc4ccc(Cl)c(Cl)c4)s3)c2)c1 [Example 7, (3-(3-{5[(3,4-dichlorophenyl)amino]-1,3,4-thiadiazol-2-yl}phenoxy)benzoic acid)] | 12 | 15 µM | 31 | 17 | 258 to 259 °C |
| FC(F)(F)c1cccc(Oc2cccc(-c3nnc(Nc4ccc(Cl)c(Cl)c4)s3)c2)c1 [Example 154, (3,4-dichlorophenyl)(5-{3-[3-(trifluoromethyl)phenoxy]phenyl}(1,3,4-thiadiazol-2-yl))amine] |  |  |  |  | 212 to 213 °C |

Further compounds by falling IC50 (PTP-1B), results first:

| IC50 (PTP-1B) [µM] | IC50 (TC-PTP) | IC50 (PTP-β) [µM] | IC50 (CD-45) [µM] | melting point | SMILES |
| --- | --- | --- | --- | --- | --- |
| 4 |  |  |  |  | O=C(O)c1cccc(Nc2nnc(-c3cc(Oc4cccc(C(F)(F)F)c4)cc(Oc4cccc(C(F)(F)F)c4)c3)s2)c1 [Compound 198, 3-{5-[3,5-Bis-(3-trifluoromethyl-phenoxy)-phenyl]-[1,3,4]thiadiazol-2-ylamino}-benzoic acid] |
| 2 |  |  |  | 137 to 142 °C (dec.) | O=C(O)CCCn1nnnc1-c1cccc(Oc2cccc(-c3nnc(Nc4ccc(Cl)c(Cl)c4)s3)c2)c1 [Example 171] |
| 1 | 1 µM | 5 | 5 |  | O=C(O)c1ccc(Cn2nc(-c3cccc(Oc4cccc(C(F)(F)F)c4)c3)sc2=Nc2ccc(Cl)c(Cl)c2)cc1 [Compound 187, 4-{2-(3,4-Dichloro-phenylimino)-5-[3{3-trifluoromethyl-phenoxy)-phenyl]-[1,3,4]thiadiaziol-3-ylmethyl}-benzoic acid] |
| 1 |  |  |  | 172 to 174 °C | O=C(O)C(=O)Nc1ccc(CN(c2ccc(Cl)c(Cl)c2)c2nnc(-c3cccc(Oc4cccc(C(F)(F)F)c4)c3)s2)cc1 [Example 169] |
| 0.8 | 1.6 µM | 30 | 14 | 259 to 262 °C | O=C(O)c1ccc(N/N=C/c2cccc(Oc3cccc(-c4nnc(Nc5ccc(Cl)c(Cl)c5)s4)c3)c2)cc1 [Example 172] |
